What all share (type): cell-based, human
For series [1], the system named is F508del CFTR gene in CFBE cells. Kind of series: Allele-specific PCR for gene modification. The note with it: CFBE cells treated with PNA/donor DNA NPs. On the procedure:
Genomic DNA was harvested from cells and purified using the Wizard Genomic DNA Purification kit (Promega, Madison Wis.). Equal amounts of genomic DNA from each sample were subjected to allele-specific PCR (ASPCR), with a gene-specific reverse primer, and an allele-specific forward primer. PCR was performed using a Eppendorf master cycler X50. PCR products were separated on a 1% agarose gel and visualized using a gel imager.
AS-PCR conditions are as follows. Platinum Taq polymerase (Invitrogen, Carlsbad Calif.) was used for PCR reactions: 5 uL betaine, 4.25 uL water, 2.5 uL 10× Platinum Taq PCR buffer, 1.25 uL 50 mM MgCl2, 0.5 uL dNTPs, 0.5 uL each primer at 10 uM, 0.5 uL Platinum Taq polymerase, and 10 uL of genomic DNA at 40 ng/uL. PCR cycler conditions for human CFTR were as follows: 95° C. 2 min, 94° C. 30 sec, 69° C. 1 min, 72° C. 1 min, 94° C. 30 sec, 68° C. 1 min, 72° C. 1 min, 94° C. 30 sec, 67° C. 1 min, 72° C. 1 min, 94° C. 30 sec, 66° C. 1 min, 72° C. 1 min, 94° C. 30 sec, 65° C. 1 min, 72° C. 1 min, [94° C. 30 sec, 65° C. 1 min, 72° C. 1 min]×35 cycles, 72° C. 2 min, hold at 4° C. 1.
Gene-specific reverse primer: (reverse complement starting from nt 80162): 5′ […]

In series [2] the test system is CFBE cells at ALI. In words: Ussing chamber assay, short circuit current. The following applies: apical PBAE/PLGA/MPG NPs, 2 mg/dose, 3 doses. On the procedure: (§1) FIG. 5A is a Schematic of treatment of cells grown at ALI. FIG. 5B is a bar graph showing Ussing Chamber assay results. CFBE cells at ALI were treated apically at 2 mg/dose for 3 doses with 48 hours between each dose **p<0.001; ***p<0.002. FIG. 5C is a dot plot showing digital droplet (ddPCR) quantification of gene editing in genomic DNA isolated from CFBE cells at ALI treated apically at 2 mg/dose for 3 doses with 48 hours between each dose ***p<0.002.
Ussing experiments were performed as previously described (Bruscia, et al., Proc Natl Acad Sci USA 103, 2965-2970 (2006)). An Easy Mount Ussing Chamber System (Physiologic Instruments) was heated to 37° C. Electrode tips were prepared by partial filling with 3% agar in 3M KCl and subsequently backfilling with a 3M KCl. The Ussing chambers are equipped with current and voltage electrodes loaded with these tips. […] The transepithelial voltage and membrane resistance was measured during each pulse. Under these conditions, short circuit current (Isc) was calculated using Ohm's Law at the timepoint wherein the basolateral chamber was filled with a chloride-free solution following 20 minutes of equilibration in Kreb's Bicarbonate Ringers. […]

The test system of series [3] is F508 del CFTR in CFBE cells at ALI. In words: Digital droplet PCR quantification of gene editing. The note with it: apical PNA/DNA NPs, 2 mg/dose, 3 doses. On the procedure:
as §1
Nanoparticles were suspended in culture media, vortexted, and sonicated in a water bath (30s) and added directly to cells. For cells treated on collagen-coated plastic in 12-well plates, the cells were treated at a concentration of 2 mg/mL. For cells treated in 6-well plates at ALI, the cells were treated apically with 250 uL of media containing 2 mg of particles. […]
gDNA was extracted from CFBE cells using the Wizard SV DNA Purification System (Promega, Madison, Wis.) according to manufacturer's instructions. The concentration of extracted gDNA samples was measured using a QuBit® dsDNA BR assay kit (Invitrogen, Carlsbad, Calif.) according to manufacturer's instructions. […] Droplets were allowed to rest at 4° C. for at least 30 minutes after cycling and were then read using the QX200™ Droplet Reader (Bio-Rad). Data were analyzed using QuantaSoft™ software. […]

Data on 2 substances can be found in US20220243211A1, “PEPTIDE NUCLEIC ACID COMPOSITIONS WITH MODIFIED HOOGSTEEN BINDING SEGMENTS AND METHODS OF USE THEREOF” (Yale University, priority 2019, published 2022).

As for “H-KKK-TJTJJTTT-OOO-TTTCCTCTATGGGTAAG-KKK-NH2 [hCF PNA] (TNTNNTTTTTTCCTCTATGGGTAAG; listed as DNA, chemistry not fully specified)”, the “gene modification by allele-specific PCR” value in series [1] is “had the desired gene modification”. In addition, in series [2], the “Isc (short circuit current), cAMP stimulated” value was “minimum Isc”. In addition, the “gene editing (ddPCR, fractional abundance of edited CFTR allele)” value in series [3] was “minimal correction”.
The like results for “H-KKK-TJTJJTTT-OOO-TTTCCTCTATGGGTAAG-KKK-NH2 [γhCF PNA-h] (TNTNNTTTTTTCCTCTATGGGTAAG; listed as DNA, chemistry not fully specified) [tail clamp PNA targeting human CFTR gene with MPγ monomers in Hoogsteen domain]” were, in that order, “had the desired gene modification”, “marked increase” and −5%.
